Data as given in US20060122185A1, “Bicyclic inhibitors of Rho kinase” (priority 2004, published 2006).

These compounds were tested against ROCK (Homo sapiens, UniProt Q13464) (assay: ROCK radioactive enzyme assay (33P)). Conditions: 13 μM [γ-33P] ATP, 27 μM MBP, 5 nM ROCK, room temperature.
Sequence of ROCK (Q13464 6-553): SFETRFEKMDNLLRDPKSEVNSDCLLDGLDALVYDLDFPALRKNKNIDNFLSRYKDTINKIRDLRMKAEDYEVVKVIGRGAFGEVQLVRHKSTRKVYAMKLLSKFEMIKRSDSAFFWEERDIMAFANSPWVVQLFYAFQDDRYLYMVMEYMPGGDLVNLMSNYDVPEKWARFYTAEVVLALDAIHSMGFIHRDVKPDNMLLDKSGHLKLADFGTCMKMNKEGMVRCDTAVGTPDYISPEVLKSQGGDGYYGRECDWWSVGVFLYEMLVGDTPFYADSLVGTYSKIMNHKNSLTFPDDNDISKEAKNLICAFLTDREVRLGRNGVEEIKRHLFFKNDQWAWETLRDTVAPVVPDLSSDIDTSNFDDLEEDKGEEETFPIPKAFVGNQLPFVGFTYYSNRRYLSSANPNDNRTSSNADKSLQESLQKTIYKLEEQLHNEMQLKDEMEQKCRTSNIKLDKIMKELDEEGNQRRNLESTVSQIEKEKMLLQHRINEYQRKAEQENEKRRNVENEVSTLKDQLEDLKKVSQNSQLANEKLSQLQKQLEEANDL
Assay type: biochemical
Method: Compounds are screened for their ability to inhibit ROCK using a standard radioactive enzyme assay. Assays are carried out in a solution containing 100 mM HEPES (pH 7.5), 10 mM MgCl2, 25 mM NaCl, 2 mM DTT and 1.5% DMSO. Final substrate concentrations in the assay are 13 μM [γ-^33P] ATP (25 mCi ^33P ATP/mmol ATP, Perkin Elmer, Cambridge, Mass./Sigma Chemicals, St Louis, Mo.) and 27 μM Myelin Basic Protein (MBP). Final enzyme concentration in the assay is 5 nM ROCK. Assays are carried out at room temperature. 1.5 μl of DMSO stock containing serial dilutions of the compound of the present invention (concentrations ranging from 10 μM to 2.6 nM) is placed in a 96 well plate. 50 μl of Solution 1 (100 mM HEPES (pH 7.5), 10 mM MgCl2, […] [γ-^33P] ATP) is added to the plate. The reaction is initiated by addition of 50 μl of Solution 2 (100 mM HEPES (pH 7.5), 10 mM MgCl2, 4 mM DTT, […] and 10 nM ROCK). After 2 hours the reaction is quenched with 50 μL of 30% trichloroacetic acid (TCA, Fisher) containing 9 mM ATP. Transfer of 140 μL of the quenched reaction to a glass fiber filter plate (Corning, Cat. No. 3511) is followed by washing 3 times with 5% TCA. 50 μL of Optima Gold scintillation fluid (Perkin Elmer) is added and the plates are counted on a Top Count (Perkin Elmer). After removing mean background values for all of the data points the data is fit using Prism software to obtain a Ki(app).
(§1) Table 3 depicts enzyme inhibition data (Ki) for certain exemplary compounds. Compound numbers in Table 3 correspond to those compounds depicted in Table 1.
CC(CO)NC(=O)c1cc(-c2n[nH]c3ncccc23)c[nH]1 (stereo not shown) [Compound 12] gave a Ki of 500 to 5000 nM. For CCN(CC)S(=O)(=O)c1cccc(CC(=O)Nc2nc(-c3n[nH]c4ncccc34)cs2)c1 [Compound 4], the Ki was under 500 nM. With CS(=O)(=O)Nc1ccc(F)c(CC(=O)Nc2cc(-c3n[nH]c4ncccc34)cs2)c1 [Compound 6, 2-(2-Fluoro-5-methanesulfonylamino-phenyl)-N-[4-(1H-pyrazolo[3,4-b]pyridin-3-yl)-thiophen-2-yl]-acetamide] the Ki was under 500 nM. Compound CS(=O)(=O)Nc1cccc(CNC(=O)c2cc(-c3n[nH]c4ncccc34)c[nH]2)c1 [Compound 11] has a Ki of under 500 nM. In the case of CS(=O)(=O)Nc1ccc(F)c(CC(=O)Nc2cc(-c3n[nH]c4nccnc34)cs2)c1 [Compound 9, N-(4-(1H-pyrazolo[3,4-b]pyrazin-3-yl)thiophen-2-yl)-2-(5-methsulfonamido-2-fluorophenyl)acetamide], the Ki is reported as under 500 nM. O=C(NCC1CCCCC1)c1cc(-c2n[nH]c3ncccc23)c[nH]1 [Compound 17] showed a Ki of under 500 nM. Compound COc1cccc(CC(=O)Nc2nc(-c3n[nH]c4ncccc34)cs2)c1 [Compound 3] has a Ki of under 500 nM. For CS(=O)(=O)Nc1cccc(CC(=O)Nc2cc(-c3n[nH]c4ncccc34)cs2)c1 [Compound 8, 2-(3-Methanesulfonylamino-phenyl)-N-[4-(1H-pyrazolo[3,4-b]pyridin-3-yl)-thiophen-2-yl]-acetamide], the Ki was under 500 nM. With CN(C)S(=O)(=O)c1cccc(CC(=O)Nc2cc(-c3n[nH]c4ncccc34)cs2)c1 [Compound 10, 2-(3-Dimethylsulfamoyl-phenyl)-N-[4-(1H-pyrazolo[3,4-b]pyridin-3-yl)-thiophen-2-yl]-acetamide] the Ki was under 500 nM. O=C(Cc1ccccc1)Nc1nc(-c2n[nH]c3ncccc23)cs1 [Compound 2] gave a Ki of under 500 nM. CS(=O)(=O)Nc1cccc(CC(=O)Nc2cc(-c3n[nH]c4nccnc34)cs2)c1 [Compound 20] gave a Ki of under 500 nM. For CS(=O)(=O)Nc1cccc(CC(=O)Nc2nc(-c3n[nH]c4ncccc34)cs2)c1 [Compound 5], the Ki was under 500 nM. O=C(Cc1cccc(OCCCC2CCNCC2)c1)Nc1cc(-c2n[nH]c3ncccc23)cs1 [Compound 7, 2-(3-(3-Piperidin-4-yl-propoxy)-phenyl)-N-[4-(1H-pyrazolo[3,4-b]pyridin-3-yl)-thiophen-2-yl]-acetamide] was tested, and the Ki was under 500 nM. O=C(NCc1cccc(OC(F)(F)F)c1)c1cc(-c2n[nH]c3ncccc23)c[nH]1 [Compound 14] gave a Ki of under 500 nM. O=C(NCc1ccc(F)cc1)c1cc(-c2n[nH]c3ncccc23)c[nH]1 [Compound 18] was tested, and the Ki was under 500 nM. Compound COc1cccc(CNC(=O)c2cc(-c3n[nH]c4ncccc34)c[nH]2)c1 [Compound 13] has a Ki of under 500 nM. O=C(NCc1ccc2c(c1)OCO2)c1cc(-c2n[nH]c3ncccc23)c[nH]1 [Compound 15] was tested, and the Ki was under 500 nM. O=C(NCc1cccc(F)c1)c1cc(-c2n[nH]c3ncccc23)c[nH]1 [Compound 16] was tested, and the Ki was under 500 nM.

Each compound was assayed against ROCK I (AA 6-553) (Homo sapiens, UniProt Q13464) (assay: ROCK I coupled enzyme assay (enzyme-linked)). Conditions: 45 μM ATP, 200 μM peptide, 45 nM ROCK I, 30° C.
Sequence of ROCK I (AA 6-553) (Q13464 6-553): as above
Assay type: biochemical
Method: Compounds are screened for their ability to inhibit ROCK I (AA 6-553) activity using a standard coupled enzyme system (Fox et al. Protein Sci. 7: 2249, 1998). Reactions are carried out in a solution containing 100 mM HEPES (pH 7.5), 10 mM MgCl2, 25 mM NaCl, 2 mM DTT and 1.5% DMSO. Final substrate concentrations in the assay are 45 μM ATP (Sigma Chemicals, St Louis, Mo.) and 200 μM peptide (American Peptide, Sunnyvale, Calif.). Reactions are carried out at 30° C. and 45 nM ROCK I. Final concentrations of the components of the coupled enzyme system are 2.5 mM phosphoenolpyruvate, 350 μM NADH, 30 μg/ml pyruvate kinase and 10 μg/ml lactate dehydrogenase.
as §1
In the case of O=C(N[C@H](CO)c1ccccc1)c1cc(-c2n[nH]c3ncccc23)c[nH]1 [Compound 1], the Ki is reported as under 500 nM.
